Measurements as given in patent publication US20140100138A1, “MECHANICAL STRESS RESPONSE ANALYSIS OF CELLS AND TISSUES” (The Regents of The University of California, priority 2012, published 2014).

Experiments:
[1] = tested on: HUVECs; test: 96-well plate screen of microtsunami-generated Ca2+ signaling, percentage of cells signaling 100-150 μm from μCB center; format: cell-based, human; conditions: 96-well screen; for effect on microtsunami-induced Ca2+ signaling in Ca2+ containing media: HHBSS+ with 2 g/L D-glucose, FIG. 9D columns 8-10; for effect on microtsunami-induced Ca2+ signaling in Ca2+ free media: HHBSS- with 3 mM EGTA, 2-APB 10-100 μM, PP2 10 μM, Verapamil 50 nM, FIG. 9D columns 1-5
Method: 96 well plates (Invitro-Scientific) were coated with fibronectin and P4 HUVECs were plated in each well. […] DMSO was also added as a control corresponding to the highest amount added from solution of the drugs, 0.3%. The first seven columns contained the previously used HHBSS- with 3 mM EGTA and the last five columns contained HHBSS+ supplemented with 2 g/L D-glucose.
The experiments were performed in a 96-well plate where twelve conditions, each with eight replicates, were tested for their potential effect on μTsunami generated Ca^2+ signaling.

[2] = 2-APB 10 μM, 30 μM or 100 μM; cited from earlier work
[3] = tested on: HUVECs; test: Cell lysate / ATP control experiments for Ca2+ signaling with and without microtsunami exposure; format: cell-based, human
Method: HUVECs grown in a tissue culture flask at full confluency were resuspended in standard HBSS- at a concentration of 1.5×10^7 cells/mL. Cell lysate solution was prepared by subjecting this solution to repeated freeze-thaw cycles at −80° C. and then sonicated on ice for 30 s.
Exposure to cell lysate alone was confirmed as not responsible for the observed Ca^2+ dynamics. Cells were dosed with a solution of cell lysate immediately following microtsunami exposure. In addition, cells were exposed to cell lysate alone. As positive controls, the Ca^2+ signaling response produced by ATP was measured with and without microtsunami exposure. As a negative control, Ca^2+ signaling without cell lysate, ATP, or microtsunami exposure was measured.
Probability of Ca2+ signaling produced by microtsunami exposure is plotted as a function of distance from the site of laser microbeam irradiation. Two control experiments were conducted to test whether the observed Ca^2+ was due to cellular exposure to cell lysate produced by the microtsunami. In the first, 150 μL of cell lysate was administered following a Ca^2+ signaling event generated by microtsunami exposure. […] Both experiments elicited an average signaling probability of <1%. […] The reduced ATP signaling probability following microtsunami exposure was due to cell lysis/necrosis produced by the microtsunami.

Compound | effect on microtsunami-induced Ca2+ signaling in Ca2+ containing media [1] | effect on microtsunami-induced Ca2+ signaling in Ca2+ free media [1] | inhibition of Ca2+ release following stimulation using a bolus of ATP [2] | average Ca2+ signaling probability, substance given following microtsunami exposure ([3]; administered after microtsunami, ATP 50 μM, cell lysate 150 μL) [%] | average Ca2+ signaling probability, substance given without microtsunami exposure ([3]; no microtsunami, ATP 50 μM) [%] | Ca2+ signaling response (in words) ([3]; with and without microtsunami exposure)
NCCOB(c1ccccc1)c1ccccc1 [2-APB, 2-Aminoethoxydiphenylborate] | suppression of signaling | dose-dependent inhibitory effect | dose-dependent inhibition of Ca^2+ release |  |  | 
Nc1ncnc2c1ncn2[C@@H]1O[C@H](COP(=O)(O)OP(=O)(O)OP(=O)(O)O)[C@@H](O)[C@H]1O [ATP] |  |  |  | 60 | > 90 | strong Ca^2+ signaling response
CC(C)(C)n1nc(-c2ccc(Cl)cc2)c2c(N)ncnc21 [PP2] | significant microtsunami-induced mechanosignaling was observed | neither PP2 nor Verapamil (FIG. 9D, columns 4, 5) affected Ca^2+ signaling |  |  |  | 
